Experimental data published in US10239836B2, “Benzenecarbothioccyclopenta[c] pyrrole-1,3-dione compounds and process for synthesis thereof” (Council of Scientific & Industrial Research, priority 2014, dated 2019).
Read-outs that look alike come from different tables or passages of the source.

What was measured:
[1] = Cytotoxicity assay (MTT viability); type: cell-based, Mouse; conditions: mouse; RAW 264.7 cells, MTT, 24 h treatment, serum free
Method: (§1) Mouse macrophage cell line RAW 264.7 was maintained in laboratory at 37° C. in
(§2) RPMI-1640 media supplemented with 10% heat-inactivated fetal bovine serum (FBS) and penicillin/streptomycin.
Viability of cultured cells was determined by (4,5-dimethylthiazol-2-yl)-2,5-diphenyltetrazolium bromide (MTT; Sigma) as described earlier (1). RAW 264.7 was seeded in triplicate at a density of 2×10^4 cells per well on a 96-well plate. […] MTT solution (0.5 mg/ml) was then added to each well and incubate for 4 h at 37° C. At the end of the incubation period, the medium was removed and the resulting purple formazan was solubilized with acidic isopropanol (0.1 N HCl in absolute isopropanol), and the absorbance was read at 570 nm using Biorad Microplate reader (Biorad, USA).

[2] = test system: LPS induced NO generation in RAW 264.7 cells; assay: Inhibition of LPS induced NO generation (nitrite, Griess reagent); type: cell-based, Mouse; conditions: for IC50: Mus musculus, read-out: NO inhibition (B) IC50; for Selectivity index (A/B): cytotoxicity IC50 / NO inhibition IC50, RAW 264.7 cells
Method: as §1, §2
Nitrite, a stable oxidized product of NO, was measured in culture supernatant using Griess reagent (Sigma Aldrich) according to a previously reported method (2). After overnight seeding in 96-well plate (2×10^4 cells/well), RAW 264.7 cell was treated with lipopolysaccharide (LPS; Sigma) at a concentration of 1 μg/ml along with different doses of compounds (as determined from cytotoxicity assay) in serum-free culture for 24 h. Following treatment, media was collected and centrifuged at 2,000 rpm for 5 min to remove cellular debris. 50 μl of this media was then reacted with equal volume of Griess reagent for 15 min at room temperature in dark and absorbance was taken at 540 nm using Microplate reader (Biorad, USA). Nitrite concentrations were determined using standard solutions of sodium nitrite prepared in cell culture medium.

[3] = RAW264.7, RAW 264.7 cells, LPS 1 μg/ml, 24 h, serum-free

| SMILES | IC50 at 24 h [1] | IC50 [2, 3] | Selectivity index (A/B) [2] | melting point | IC50 ([2]; RAW264.7, 24 h) |
| --- | --- | --- | --- | --- | --- |
| O=C(Cc1ccccc1)S[C@@]12CC[C@@H](O)[C@@H]1C(=O)NC2=O (relative stereo) [Compound 10, S-((3aS*,6R*,6aR*)-6-Hydroxy-1,3-dioxohexahydrocyclopenta[c]pyrrol-3a(1H)-yl) 2-phenylethanethioate] | 774 µM | 143 µM | 5.418 |  |  |
| O=C(S[C@]12CC[C@H](O)[C@H]1C(=O)NC2=O)c1ccc(O)cc1 [(−)-2, S-((3aR,6S,6aS)-6-hydroxy-1,3-dioxohexahydrocyclopenta[c]pyrrol-3a(1H)-yl) 4-hydroxybenzothioate] | 1380 µM | 140 µM | 9.85 |  |  |
| CC(=O)S[C@@]12CC[C@@H](O)[C@@H]1C(=O)NC2=O (relative stereo) [Compound 8, S-((3aS*,6R*,6aR*)-6-Hydroxy-1,3-dioxohexahydrocyclopenta[c]pyrrol-3a(1H)-yl) ethanethioate] | 857 µM | 833 µM | 1.029 | 120 to 129 °C |  |
| O=C(S[C@]12CCC[C@H]1C(=O)NC2=O)c1ccc(F)cc1 (relative stereo) [Compound 20, S-((3aR*,6aS*)-1,3-Dioxohexahydrocyclopenta[c]pyrrol-3a(1H)-yl) 4-fluorobenzothioate] | 384 µM | 390 µM | 0.9841 | 186 to 187 °C |  |
| O=C(Cc1ccccc1)S[C@]12CC[C@@H](O)[C@H]1C(=O)NC2=O (relative stereo) [Compound 9, S-((3aR*,6R*,6aS*)-6-Hydroxy-1,3-dioxohexahydrocyclopenta[c]pyrrol-3a(1H)-yl) 2-phenylethanethioate] | 834 µM | 132 µM | 6.322 |  |  |
| O=C(S[C@@]12CC[C@@H](O)[C@@H]1C(=O)NC2=O)c1ccc(F)cc1 (relative stereo) [Compound 11, S-((3aS*,6R*,6aR*)-6-Hydroxy-1,3-dioxohexahydrocyclopenta[c]pyrrol-3a(1H)-yl) 4-fluorobenzothioate] | 474 µM | 318 µM | 1.49 | 184 to 186 °C |  |
| O=C1NC(=O)C2=C1CCC2SC(=O)c1ccccc1 (stereo not shown) |  |  |  | 149 to 151 °C |  |
| O=C(S[C@@]12CC[C@@H](O)[C@@H]1C(=O)NC2=O)c1ccccc1Cl (relative stereo) [Compound 14, S-((3aS*,6R*,6aR*)-6-Hydroxy-1,3-dioxohexahydrocyclopenta[c]pyrrol-3a(1H)-yl) 2-chlorobenzothioate] | 717 µM | 178 µM | 4.022 | 154 to 158 °C |  |
| O=C(S[C@@]12CC[C@@H](O)[C@@H]1C(=O)NC2=O)c1cccs1 (relative stereo) [Compound 12, S-((3aS*,6R*,6aR*)-6-Hydroxy-1,3-dioxohexahydrocyclopenta[c]pyrrol-3a(1H)-yl) thiophene-2-carbothioate] | 10900 µM | 36.6 µM | 297.0519 |  |  |
| O=C1NC(=O)C2=C1CCC2O (stereo in doubt) [(+)-4, (S)-4-Hydroxy-5,6-dihydrocyclopenta[c]pyrrole-1,3(2H,4H)-dione] | 217 µM | 95.9 µM | 2.26 |  |  |
| O=C(Cc1ccccc1)SC12CCC=C1C(=O)NC2=O (stereo not drawn) [Compound 27, S-(1,3-Dioxo-2,3,4,5-tetrahydrocyclopenta[c]pyrrol-3a(1H)-yl) 2-phenylethanethioate] | 93.1 µM | 30.6 µM | 3.042 | 155 to 158 °C |  |
| O=C(Cc1ccccc1)S[C@]12CCC[C@H]1C(=O)NC2=O (relative stereo) [Compound 19, S-((3aR*,6aS*)-1,3-Dioxohexahydrocyclopenta[c]pyrrol-3a(1H)-yl) 2-phenylethanethioate] | 426 µM | 56.9 µM | 7.48 |  |  |
| CC(=O)SC1CC[C@]2(SC(C)=O)C(=O)NC(=O)[C@H]12 (relative stereo) [Compound 28, S,S′-((3aR*,6aR*)-1,3-Dioxohexahydrocyclopenta[c]pyrrole-3a,6(1H)-diyl) diethanethioate] | 10000 µM |  | 505.4343 |  | 19.8 µM |
| CC(=O)OC1CC[C@]2(SC(=O)Cc3ccccc3)C(=O)NC(=O)[C@H]12 (relative stereo) [Compound 32, (3aS*,6aR*)-1,3-Dioxo-6a-((2-phenylacetyl)thio) octahydrocyclopenta[c]pyrrol-4-yl acetate] | 1610 µM |  | 23.57 |  | 68.2 µM |
| O=C1NC(=O)C2(SC(=O)c3ccc(F)cc3)CCC=C12 (stereo not shown) |  |  |  | 191 to 192 °C |  |
| O=C(S[C@@]12CC[C@H](O)[C@@H]1C(=O)NC2=O)c1ccccc1Cl (relative stereo) [Compound 13, S-((3aS*,6S*,6aR*)-6-Hydroxy-1,3-dioxohexahydrocyclopenta[c]pyrrol-3a(1H)-yl) 2-chlorobenzothioate] | 668 µM | 127 µM | 5.245 | 173 to 174 °C |  |
| O=C(S[C@]12CCC[C@H]1C(=O)NC2=O)c1ccccc1Cl (relative stereo) [Compound 21, S-((3aR*,6aS*)-1,3-Dioxohexahydrocyclopenta[c]pyrrol-3a(1H)-yl) 2-chlorobenzothioate] | 834 µM | 59.8 µM | 13.95 | 188 to 190 °C |  |
| CC(=O)OC1CCC2=C1C(=O)NC2=O (racemic) [Compound 5, 1,3-dioxo-1,2,3,4,5,6-hexahydrocyclopenta[c]pyrrol-4-yl acetate] | 616 µM | 42 µM | 14.67 |  |  |
| O=C(S[C@@]12CC[C@@H](O)[C@@H]1C(=O)NC2=O)c1ccccc1O (relative stereo) |  |  |  | 213 to 216 °C |  |
| O=C(S[C@@]12CC[C@@H](O)[C@@H]1C(=O)NC2=O)c1ccc(O)cc1 (racemic) [(±)-2, S-((3aS*,6R*,6aR*)-6-hydroxy-1,3-dioxohexahydrocyclopenta[c]pyrrol-3a(1H)-yl) 4-hydroxybenzothioate] | 434 µM | 225 µM | 1.925 |  |  |
| CC(=O)OC1CC[C@]2(SC(=O)c3ccc(F)cc3)C(=O)NC(=O)[C@H]12 (relative stereo) [Compound 33, (3aS*,6aR*)-6a-((4-Fluorobenzoyl)thio)-1,3-dioxooctahydrocyclopenta[c]pyrrol-4-yl acetate] | 12100 µM | 34.3 µM | 353.8076 |  |  |
| O=C(SC1CC[C@]2(SC(=O)c3ccc(F)cc3)C(=O)NC(=O)[C@H]12)c1ccc(F)cc1 (relative stereo) [Compound 23, S,S′-((3aR*,6aR*)-1,3-Dioxohexahydrocyclopenta[c]pyrrole-3a,6(1H)-diyl) bis(4-fluorobenzothioate)] | 211 µM |  | 2.142 |  | 98.3 µM |
| O=C(S[C@@]12CC[C@H](O)[C@@H]1C(=O)NC2=O)c1ccc(O)cc1 [(+)-1, S-((3aS,6S,6aR)-6-hydroxy-1,3-dioxohexahydrocyclopenta[c]pyrrol-3a(1H)-yl) 4-hydroxybenzothioate] | 1020 µM | 71.8 µM | 14.14 |  |  |
| CC(=O)S[C@]12CC[C@@H](O)[C@H]1C(=O)NC2=O (relative stereo) [Compound 7, S-((3aR*,6R*,6aS*)-6-Hydroxy-1,3-dioxohexahydrocyclopenta[c]pyrrol-3a(1H)-yl) ethanethioate] | 558 µM | 148 µM | 3.7762 |  |  |
| O=C(S)c1ccc(O)cc1 [Compound 6, 4-hydroxybenzothioic S-acid] | 2910 µM | 127 µM | 22.99 |  |  |
| CC(=O)OC1CC[C@]2(SC(=O)c3ccccc3)C(=O)NC(=O)[C@H]12 (relative stereo) [Compound 35, (3aS*,6aR*)-6a-(Benzoylthio)-1,3-dioxooctahydrocyclopenta[c]pyrrol-4-yl acetate] | 1910 µM | 64.3 µM | 29.74 |  |  |
| CC(=O)OC1CC[C@]2(SC(=O)c3ccccc3Cl)C(=O)NC(=O)[C@H]12 (relative stereo) [Compound 34, (3aS*,6aR*)-6a-((2-Chlorobenzoyl)thio)-1,3-dioxooctahydrocyclopenta[c]pyrrol-4-yl acetate] | 9080 µM | 101 µM | 89.51 |  |  |
| O=C1NC(=O)C2=C1CCC2O (stereo in doubt) [(−)-4, (R)-4-Hydroxy-5,6-dihydrocyclopenta[c]pyrrole-1,3(2H,4H)-dione] | 319 µM | 121 µM | 2.631 |  |  |
